{"source": "patent US20110152379A1", "about": "“COMPOSITION FOR CONTROL OF AGING AND/OR EXTENSION OF LIFE, CONTAINING DAPSONE AS ACTIVE INGREDIENT” (priority 2008, published 2011)", "key": {"C. elegans": {"test_system": "C. elegans", "assay": "Oxygen uptake rate of C. elegans (Clark-type oxygen electrode)", "format": "in vivo", "conditions": "C. elegans treated with DDS; FIG. 10", "experimental": "The oxygen uptake rate was measured by using the method disclosed in the theses (50, 51) using Clark-type oxygen electrode (782 Oxygen Meter, Strathkelvin Instruments, Glasgow, UK). […] Approximately 1500 C. elegans in 200 uL of S-basal buffer were added to Mitocell chamber with Clark-type oxygen electrode to measure the oxygen uptake rate for several minuets. A sample was carefully taken from the chamber and then twice homogenized at 5000 rpm for 20 seconds by using Precellys24 homogenizer with glass bead. The sample was centrifuged at 15000 g for 20 minutes and the protein in the supernatant was quantified by using BCA protein quantification kit."}, "ceDuox1": {"test_system": "ceDuox1", "assay": "RT-PCR of ceDuox1 mRNA in worms", "format": "in vivo, C. elegans", "conditions": "worms treated with DDS; FIG. 13", "experimental": "Total RNA was isolated by using TRI reagent available from MRC Company and first cDNA strain was synthesized by using Oligo-dT and Superscript II Reverse Transcriptase (available from Invitrogen Company). The gene amplification (PCR) was performed by using PCR Master Mix (Genenmed) and as the base sequence of the primer, ceDuox1; 5′-[…]-3′ (Forward Primer) and 5′-[…]-3′ (Reverse Primer), actin 5′-[…]-3′ (Forward Primer) and 5′-[…]-3′ (Reverse Primer) were used."}, "SOD2": {"test_system": "SOD2", "assay": "Western blot of SOD2 amount in human diploid fibroblast", "format": "cell-based", "conditions": "various concentrations of DDS, FIG. 25B", "experimental": "Trolox that is well known as a water-soluble vitamin E was used as a positive control.\nThe isolated sample was transferred to a nitrocellulose and analyzed through Western Blot using MS601 (Total OXPHOS Complexes Detection Kit, MitoSciences, containing antibodies against SDH30 subunit of complex II (5 μg/ml), Core2 subunit of complex III (0.2 μg/ml), COXII subunit of complex IV (2 μg/ml), and subunit α of F1-ATPase of complex V (0.2 μg/ml)), PCKpan-p, PCKα/β-p, PKCδ-p (Phospho-PKC antibody Sampler Kit, Cell Signaling Technology), PKC α, PCKβ, PKCδ (Life Technologies), β-Actin (Sigma), and the like. The measurement was performed by using a horseradish […] secondary antibodies (Zymed) and ECL (Pierce). The results were shown through visualizing by using Autoradiographic film (Image Reader, LAS-3000Fujifilm, Japan)."}}, "data": [{"smiles": "Nc1ccc(S(=O)(=O)c2ccc(N)cc2)cc1", "note": "[DDS, 4,4′-diaminodiphenylsulfone]", "values": [{"measurement": "oxygen uptake rate", "setting": "C. elegans", "value": "meaningfully decreased"}, {"measurement": "amounts of mRNA of C. elegans NOX, ceDuox", "setting": "ceDuox1", "value": "significantly decreased"}, {"measurement": "amount of SOD2", "setting": "SOD2", "value": "decreases"}]}]}
